Our source for the TGI and GI50 values is PubChem BioAssay (NCI).

Broadly, the TGI is the concentration giving total growth inhibition. Broadly, the GI50 is the concentration at which growth is held to half of that of the control.

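All cell lines were grown in 96-well plates and treated with compound for 48 hours. The concentration for 50% growth inhibition is given as GI50. The concentration for full growth arrest is given as TGI.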 Where a SMILES comes first, the peptide text is derived from it. The star is where a group is joined. Palmitoyl = CCCCCCCCCCCCCCCC(=O)*

Test systems include PC-3 prostate; SNB-75 CNS; HCT-116 colon; TK-10 renal; MDA-MB-435; MDA-MB-231 breast; MCF7 breast; 786-0 renal; HCC-2998 colon; KM20L2 colon; M19-MEL melanoma; XF 498 CNS; LXFL 529 NSCLC.
Common to all, as to assay: DTP human tumour cell line panel, 48 h

As to `O=C(/C=C/c1ccc(Oc2cc(C(=O)/C=C/c3ccc(O)cc3)c(O)cc2O)cc1)c1ccc(O)cc1O`, the total growth inhibition concentration (TGI) was 24.9 µM in the test with PC-3 prostate; 9.68 µM in the test with SNB-75 CNS; 4.57 µM with HCT-116 colon; 11.6 µM in the test on TK-10 renal; 17.6 µM with MDA-MB-435; over 100 µM in the test with MDA-MB-231 breast. The results for the concentration for total growth inhibition (TGI) with MCF7 breast and in the test on 786-0 renal were 19.5 µM and 16 µM, respectively.
Take `CON(C)c1nc(N(C)OC)nc(N(C)OC)n1`: the TGI with PC-3 prostate, in the test on SNB-75 CNS, with HCT-116 colon, with TK-10 renal, in the test on HCC-2998 colon and in the test with MDA-MB-435 was over 10 µM throughout. The TGI with MDA-MB-231 breast and with MCF7 breast was over 10 µM throughout.
As for `O=c1c2cc(S(=O)(=O)O)ccc2nc(COc2ccc(Oc3ccc(Cl)cc3Cl)cc2)n1-c1ccc(Oc2ccc(Cl)cc2)cc1Cl`, the TGI with PC-3 prostate is over 100 µM; in the test with SNB-75 CNS it was 50.1 µM; in the test on HCT-116 colon, 58.4 µM; in the test on TK-10 renal it was 58.8 µM; with MDA-MB-435 it was 39.6 µM; in the test with MCF7 breast, 40.6 µM. Further, the total growth inhibition concentration (TGI) with 786-0 renal is 40.7 µM.
Turning to `Cn1c(-c2ccccc2)cc(-c2cccs2)c1-c1cccs1`, the TGI in the test with SNB-75 CNS, in the test on HCT-116 colon, with HCC-2998 colon, in the test with KM20L2 colon, in the test with M19-MEL melanoma and in the test with XF 498 CNS was over 100 µM in each case. This compound displayed a TGI in the test on MCF7 breast of over 100 µM.
For the compound `Cc1cc(C)nc(NS(=O)(=O)c2ccc(NC(=O)c3cccc4c(Nc5ccc(S(=O)(=O)Nc6cc(C)on6)cc5)c5ccccc5nc34)cc2)n1`, the concentration for total growth inhibition (TGI) is 48.9 µM in the test on SNB-75 CNS; 35.5 µM in the test on LXFL 529 NSCLC; 84 µM with HCT-116 colon; over 100 µM with TK-10 renal; 29.4 µM in the test on HCC-2998 colon; 62.4 µM with M19-MEL melanoma. The compound further came in with a TGI in the test with XF 498 CNS of 47.6 µM.
Take `CC(C)C(C(=O)O)N1C(=O)c2ccccc2C1=O` (centres undefined): the total growth inhibition concentration (TGI) in the test on PC-3 prostate, in the test with SNB-75 CNS, in the test on HCT-116 colon, in the test on TK-10 renal, with HCC-2998 colon and with MDA-MB-435 was over 100 µM each time. The TGI in the test with MDA-MB-231 breast, with MCF7 breast and with 786-0 renal was over 100 µM each time.
In the case of `COC(=O)c1c(C)n([O-])c2cc(Cl)c(Cl)cc2[n+]1=O`, the TGI in the test on PC-3 prostate is over 100 µM; with HCT-116 colon, over 100 µM; in the test with TK-10 renal it was 61.5 µM; in the test with HCC-2998 colon it was 32.1 µM; with MDA-MB-435, 62.8 µM; with MDA-MB-231 breast, 67.2 µM. Further, the TGI with MCF7 breast and in the test with 786-0 renal was over 100 µM in each case.
In the case of `CC12C=CC(=O)C=C1CCC1C3CCC(O)(C(=O)CO)C3(C)CC(O)C12F` (centres undefined), the TGI in the test on PC-3 prostate, in the test on SNB-75 CNS, in the test with LXFL 529 NSCLC, with HCT-116 colon, with TK-10 renal and with HCC-2998 colon was over 100 µM in each case. Besides, the TGI with KM20L2 colon, in the test with MDA-MB-435, with MDA-MB-231 breast, in the test with M19-MEL melanoma, in the test on XF 498 CNS and in the test with MCF7 breast was over 100 µM each time. For the same compound, in the test with 786-0 renal, the total growth inhibition concentration (TGI) is over 100 µM.
As for `C[N+](C)(C)c1ncnc2c1ncn2C1CC(O)C(CO)O1` (centres undefined), the TGI in the test with PC-3 prostate, in the test with SNB-75 CNS, in the test with HCT-116 colon, with TK-10 renal, in the test on HCC-2998 colon and with MDA-MB-435 was over 100 µM in each case. The concentration for total growth inhibition (TGI) with MDA-MB-231 breast, with MCF7 breast and in the test with 786-0 renal was over 100 µM each time.
Regarding `CCCC1CCC(=C2C(=O)CCC2=O)O1` (centres undefined), the TGI in the test on PC-3 prostate, in the test with SNB-75 CNS, in the test on HCT-116 colon, in the test with TK-10 renal, with HCC-2998 colon and in the test on MDA-MB-435 was over 100 µM throughout. For the same compound, the TGI in the test with MDA-MB-231 breast, in the test on MCF7 breast and in the test with 786-0 renal was over 100 µM throughout.
As to `COC(=O)C1=C(OC(=O)/C(=C/c2ccc(Cl)cc2)c2ccc(Cl)cc2)C(C(=O)OC)[C@]2(O)[C@@H](C(=O)OC)[C@H]1C[C@@H](c1ccccc1)[C@@H]2C(=O)OC` (some centres undefined), the TGI with PC-3 prostate, with SNB-75 CNS, in the test with HCT-116 colon, in the test on TK-10 renal, with MDA-MB-435 and in the test with MDA-MB-231 breast was over 100 µM each time.
For `CC(N)Cc1ccc(Cl)c(Cl)c1` (centres undefined), the TGI was over 92.3 µM with SNB-75 CNS; 34.9 µM in the test on LXFL 529 NSCLC; over 100 µM in the test on HCT-116 colon; over 83 µM in the test on TK-10 renal; 31.2 µM with HCC-2998 colon; 53.7 µM with KM20L2 colon. Further, the results for the TGI in the test on M19-MEL melanoma, in the test on XF 498 CNS and in the test on 786-0 renal were 47 µM, 23.7 µM and over 100 µM, respectively.
Turning to `CCCCCCCCCCCCCCCC(=O)N1CCCC1C(=O)NCC(=O)NC(Cc1ccccc1)C(=O)NC(C)C(=O)NC(CO)C(=O)NC(Cc1ccc(O)cc1)C(=O)NC(CCCCN)C(=O)NC(CC(C)C)C(=O)NC(CCCN=C(N)N)C(=O)N1CCCC1C(=O)NCC(N)=O` (centres undefined) (Palmitoyl-PGFASYKLRPG-NH2; configuration not given here), the GI50 with SNB-75 CNS is 22.9 µM; in the test on HCT-116 colon, 12.1 µM; with TK-10 renal, 18.4 µM; with HCC-2998 colon it was 13.4 µM; in the test with MDA-MB-435 it was 14 µM; in the test with MDA-MB-231 breast, 12.5 µM. Further, the GI50 in the test with MCF7 breast was 18.2 µM. Further, the total growth inhibition concentration (TGI) with SNB-75 CNS was 43.5 µM; in the test on HCT-116 colon, 24.9 µM; in the test with TK-10 renal it was 41.5 µM; in the test on HCC-2998 colon, 28.9 µM; with MDA-MB-435 it was 54.5 µM; with MDA-MB-231 breast, 26.5 µM. In addition, the TGI in the test with MCF7 breast was found to be 42.8 µM.
With `O[C@@]12Cc3c([nH]c4ccccc34)[C@@H]3Oc4cccc5c4[C@@]31CCN(CC1CC1)[C@@H]2C5`, the concentration for total growth inhibition (TGI) with PC-3 prostate turned out to be 30.7 µM; with TK-10 renal it was 33.7 µM; with HCC-2998 colon it was 31.9 µM; in the test on MDA-MB-435, 29.2 µM; in the test with MDA-MB-231 breast, 40.4 µM; in the test on MCF7 breast, 31.3 µM.
For the compound `CCOC(=O)c1c(C)n(-c2ccc(Cl)cc2)c2c1cc(O)c1[nH]c3c(c12)CCCC3`, the total growth inhibition concentration (TGI) in the test on PC-3 prostate, in the test on SNB-75 CNS, in the test on HCT-116 colon, in the test on TK-10 renal, with HCC-2998 colon and in the test with MDA-MB-435 was over 100 µM throughout. In addition, the TGI in the test on MDA-MB-231 breast, in the test with MCF7 breast and in the test on 786-0 renal was over 100 µM each time.
For `CN1C(c2ccccc2)CC(=O)C(N)C1c1ccccc1` (centres undefined), the concentration for total growth inhibition (TGI) with SNB-75 CNS was over 100 µM; in the test with LXFL 529 NSCLC, 37.5 µM; with HCT-116 colon, 34.2 µM; in the test with TK-10 renal it was over 100 µM; in the test with HCC-2998 colon, 43.3 µM; with KM20L2 colon, over 90.6 µM. Further, the TGI came out at 55.5 µM in the test on M19-MEL melanoma, 28.1 µM in the test on XF 498 CNS and 97.7 µM in the test on 786-0 renal.
Consider `Nc1nc(O)c2ncn([C@H]3CC[C@@H](CO)O3)c2n1`, for which the TGI with PC-3 prostate, with SNB-75 CNS, in the test on HCT-116 colon, with TK-10 renal, with MDA-MB-435 and with MCF7 breast was over 100 µM throughout.
For `Cc1ccc(-c2nc(N/N=C/C=C/c3ccccc3)c3ccccc3n2)cc1`, the TGI in the test on PC-3 prostate was over 100 µM; with SNB-75 CNS, over 100 µM; in the test on HCT-116 colon, over 100 µM; in the test on TK-10 renal, 38.7 µM; in the test on HCC-2998 colon, over 100 µM; with MDA-MB-435 it was over 100 µM. Moreover, the TGI with MDA-MB-231 breast is 47.9 µM; with MCF7 breast, 75.9 µM; with 786-0 renal, over 100 µM.
In the case of `Cc1c(-c2ccccc2)[nH]c2cc(Cl)ccc2c1=O`, the TGI in the test with HCT-116 colon, in the test on TK-10 renal, with HCC-2998 colon, in the test on MDA-MB-435, with MDA-MB-231 breast and in the test on MCF7 breast was over 100 µM throughout.
Regarding `CCN1CCC(O)(/C=C/c2ccccc2C)C(C(=O)/C=C/c2ccccc2C)C1` (centres undefined), the total growth inhibition concentration (TGI) with PC-3 prostate is 4.05 µM; in the test with SNB-75 CNS, 16.6 µM; in the test with HCT-116 colon, 3.38 µM; in the test on TK-10 renal, 10.1 µM; in the test with HCC-2998 colon, 2.61 µM; with MDA-MB-435 it was 7.04 µM. The TGI with MDA-MB-231 breast stood at 7.11 µM; in the test with MCF7 breast it was 7.37 µM.
Turning to `c1cnc2c(c1)ccc1cccnc12`, the total growth inhibition concentration (TGI) was over 100 µM in the test with PC-3 prostate; over 39.7 µM in the test with SNB-75 CNS; over 100 µM in the test on HCT-116 colon; over 92 µM in the test on TK-10 renal; over 62.4 µM with HCC-2998 colon; over 100 µM in the test on MDA-MB-435. For the same compound, the TGI with MDA-MB-231 breast, in the test on MCF7 breast and in the test with 786-0 renal was over 100 µM in each case.
For the compound `CC1=C(O)C2=C(C(=O)C1=O)[C@@H](C)CC[C@@H]2[C@@H](C)C/C=C/C(C)(C)O`, the TGI in the test with PC-3 prostate, in the test with HCT-116 colon, in the test with MDA-MB-435, in the test on MDA-MB-231 breast, with MCF7 breast and in the test with 786-0 renal was over 100 µM throughout.
Regarding `Nc1[nH]c(=O)nc2c1cnn2C1CCCCO1` (centres undefined), the TGI in the test on SNB-75 CNS, with LXFL 529 NSCLC, in the test on HCT-116 colon, in the test with TK-10 renal, in the test with HCC-2998 colon and with KM20L2 colon was over 100 µM throughout. In the test with XF 498 CNS, this compound displayed a TGI of over 100 µM.
In the case of `C=C(C)C1Cc2c(c3ccccc3n(C)c2=O)O1` (centres undefined), the total growth inhibition concentration (TGI) in the test on SNB-75 CNS, in the test on LXFL 529 NSCLC, in the test with TK-10 renal, in the test on KM20L2 colon and with M19-MEL melanoma was over 100 µM in each case.
In the case of `c1ccc(-c2nc(N3CCNCC3)c3oc(-c4ccccc4)nc3n2)cc1`, the GI50 is 1.27 µM in the test with SNB-75 CNS; 1.58 µM with HCC-2998 colon; 1.65 µM with MDA-MB-435; 1.76 µM with MDA-MB-231 breast; 1.48 µM in the test with MCF7 breast. Moreover, the concentration for total growth inhibition (TGI) with SNB-75 CNS came out at 2.59 µM; with HCC-2998 colon, 3.05 µM; in the test on MDA-MB-435, 3.12 µM; in the test on MDA-MB-231 breast, 3.28 µM; with MCF7 breast, 3.31 µM.
